Results as given in patent US20080194880A1, “Process For the Preparation of Polymorphs of Mesotrione” (priority 2004, published 2008).

Columns and labels:
Type in all cases: physicochemical
[1] = Conversion of isolated Form 2 mesotrione to Form 1 in water in the presence of xylene at different pH; conditions: xylene:mesotrione 1:5, 21 °C
Source text: This is an example of the conversion of already isolated Form 2 mesotrione to Form 1 mesotrione in the presence of solvent. A 10% solution of Form 2 in water was made at different pH values ranging from 2 to 6. If seeded, a seed concentration of 2% Form 1 relative to the Form 2 mesotrione concentration was used. A 1:5 ratio of xylene to mesotrione was used in these experiments. Actual conversion time may be less than shown.

[2] = Conversion of isolated Form 2 mesotrione to Form 1 in process filtrate
[3] = Conversion of isolated Form 2 mesotrione to Form 1 in process filtrate with TEA and NaCl; conditions: not seeded
[4] = Conversion of in-process Form 2 mesotrione slurry from the crystallizer to Form 1; conditions: not seeded
Source text: This is an example of converting in process Form 2 mesotrione to Form 1 mesotrione. Form 2 material was made in the plant via a process upset. […]

[5] = Stabilising Form 2 mesotrione in a 0.05% Rhodasurf DA630 solution; conditions: pH 5.5, after 10 days
Experimental: 0.5 g of Form 2 mesotrione crystals were stirred with a 0.05% Rhodasurf DA630 (15 ml) in a reaction flask. A pH probe was placed in the system and the pH was increased to 11.5 by the addition of 0.6 ml of 10% sodium hydroxide solution. The pH of the solution was reduced to 5.5 by the addition of 0.74 g of Form 2 mesotrione. The polymorphic form of the mesotrione was monitored periodically by microscopy and FT-IR.

[6] = Polymorphic stability of pure mesotrione in aqueous suspension at pH 1 to 4
Experimental: 1.6 g of the re-crystallised mesotrione crystals were stirred with water (30 ml) in a reaction flask and the pH increased to 12 by the addition of sodium hydroxide. 1.5 ml of 10% hydrochloric acid was added over 15 minutes to reduce the pH of the solution to pH ranges between 1 and 4. The suspension was stirred and the polymorphic form of the crystals was determined as Form 2 by optical microscopy and FT-IR. Below pH 2.5, Form 2 transformed to Form 1 within 1 hour. At pH 3 Form 2 was stable but converted to Form 1 when seeded with Form 1 over four hours.

CS(=O)(=O)c1ccc(C(=O)C2C(=O)CCCC2=O)c([N+](=O)[O-])c1 [Form 2 mesotrione, 2-(4-methylsulphonyl-2-nitrobenzoyl)cyclohexane-1,3-dione]
Dominant Polymorph Form (IR) ([1]; Example 1A: 10% Form 2 in water, 6.3 hr, pH 2.0, seeded 2% Form 1): 1 | Dominant Polymorph Form (IR) ([1]; Example 1B: 10% Form 2 in water, 6.3 hr, pH 2.9, seeded 2% Form 1): 2 | Dominant Polymorph Form (IR) ([1]; Example 1C: 10% Form 2 in water, 6.3 hr, pH 4.1, seeded 2% Form 1): 2 | Dominant Polymorph Form (IR) ([1]; Example 1D: 10% Form 2 in water, 6.3 hr, pH 5.9, seeded 2% Form 1): 2 | Dominant Polymorph Form (IR) ([1]; Example 1E: 10% Form 2 in water, 6.3 hr, pH 2.5, seeded 2% Form 1): 1 | Dominant Polymorph Form (IR) ([1]; Example 1F: 10% Form 2 in water, 6.3 hr, pH 5.1, seeded 2% Form 1): 2 | Dominant Polymorph Form (IR) ([1]; Example 1G: 10% Form 2 in water, 23.3 hr, pH 2.0, seeded 2% Form 1): 1 | Dominant Polymorph Form (IR) ([1]; Example 1H: 10% Form 2 in water, 23.3 hr, pH 2.9, seeded 2% Form 1): 2 | Dominant Polymorph Form (IR) ([1]; Example 1I: 10% Form 2 in water, 23.5 hr, pH 5.9, seeded 2% Form 1): 2 | Dominant Polymorph Form (IR) ([1]; Example 1J: 10% Form 2 in water, 23.5 hr, pH 2.5, seeded 2% Form 1): 1 | Dominant Polymorph Form (IR) ([1]; Example 1K: 10% Form 2 in water, 23.5 hr, pH 2.0, not seeded): 1 | Dominant Polymorph Form (IR) ([1]; Example 1L: 10% Form 2 in water, 22.0 hr, pH 2.0, not seeded): 1 | Dominant Polymorph Form (IR) ([1]; Example 1M: 10% Form 2 in water, 22.0 hr, pH 4.0, not seeded): 2 | Hours to convert ([2]; Example 4A: process filtrate, temp 22, pH 3.6, agitated, seeded, did not convert after 52 hrs): Did not | Hours to convert ([2]; Example 4B: process filtrate, temp 22, pH 3.6, agitated, seeded, did not convert after 48 hrs): Did not | Hours to convert ([2]; Example 4C: process filtrate, temp 30, pH 3.6, agitated, seeded, did not convert after 18 hrs): Did not | Hours to convert ([2]; Example 4D: process filtrate, temp 50, pH 2.0, agitated, not seeded): 2 h | Hours to convert ([2]; Example 4E: process filtrate, temp 50, pH 1.8, agitated, not seeded): 2 h | Hours to convert ([2]; Example 4F: process filtrate, temp 50, pH 1.8, not agitated, not seeded): 2 h | Hours to convert ([3]; Example 3A: process filtrate, temp 40, pH 1.8, no meso:TEA or meso:NaCl ratio printed, agitated): 17 h | Hours to convert ([3]; Example 3B: process filtrate, temp 50, pH 2.0, meso:TEA 1:1.3, meso:NaCl 2:1, agitated): 1 h | Hours to convert ([3]; Example 3C: process filtrate, temp 50, pH 2.0, meso:TEA 1:1.3, meso:NaCl 2:1, agitated): 5 h | Hours to convert ([3]; Example 3D: process filtrate, temp 50, pH 1.8, meso:TEA 1:1.3, meso:NaCl 2:1, agitated): 4 h | Hours to convert ([4]; Example 2A: Form 2 slurry, 20° C., pH 3.2, not agitated, did not convert after 4-5 days): Did not | Hours to convert ([4]; Example 2B: Form 2 slurry, 40° C., pH 2.0, agitated): 4 h | Hours to convert ([4]; Example 2C: Form 2 slurry, 50° C., pH 2.0, agitated): 1.4 h | Hours to convert ([4]; Example 2D: Form 2 slurry, 50° C., pH 2.9, agitated): 1.8 h | Hours to convert ([4]; Example 2E: Form 2 slurry, 40° C., pH 2.0, agitated): 4 h | Polymorphic form (microscopy and FT-IR) [5]: still predominately Form 2 | Transformation of Form 2 to Form 1 ([6]; aqueous suspension, pH between 3.5 and 4, heated to 40° C., 1% by weight of Form 1 seeds added): would not transform to Form 1 | Polymorphic form of the suspension ([6]; pH between 3.5 and 4, determined periodically over the next 3 weeks): always found to be Form 2 | Transformation of Form 2 to Form 1 ([6]; pH between 3.5 and 4, samples taken several months later): had not transformed to Form 1 | Time for Form 2 to transform to Form 1 ([6]; stirred aqueous suspension, below pH 2.5): ≤ 1 h | Polymorphic stability of Form 2 ([6]; stirred aqueous suspension, pH 3, not seeded): stable | Time for Form 2 to convert to Form 1 ([6]; stirred aqueous suspension, pH 3, seeded with Form 1): four
